Tested on: mitochondria isolated from liver of rat
Assay: Protection against mitochondrial swelling induced by statins
Format: biochemical
Method: Mitochondria were isolated from adult rat liver (MFR) using the technique of differential centrifugation, according to […] and HOGEBOOM (1951), after a fast of 12 h. The liver, removed after death of the animal by cerebral concussion, was wash in a 250 mM saccharose solution containing buffer 10 mM HEPES pH 7.2 and 0.5 mM EGTA, and chopped with a scissors and homogenized in a Potter-Elvehjem homogeneizer. The material was centrifuged at 2500×g for 10 minutes. The resulting supernatant was centrifuged for 10 minutes at 8000×g. The supernatant was discarded and the sediment resuspended in 250 mM saccharose, 5 mM HEPES pH 7.2, 0.3 mM EGTA, and centrifuged as the previous step. […]
Mitochondrial swelling was calculated based on the decrease in tubidity of a mitochondrial suspension measured at 520 nm in a Hitachi spectrometer model U-3000 for a time period between 0 and 800 seconds.
This procedure of evaluation of mitochondria modification is based on fact that the mitochondria suspensions are turbid and scatter incident light. […] A spectrofotometric measurement of the absorbance reduction at 540 nm (Ca^2+-dependent NAD(P)^+-induced alterations in membrane permeability of the mitochondria. Integration of Mitochondrial Function, Ed. J. Lemasters, Plenum, New York, pp. 535-542) is made in a spectrophotometer connected to a potentiometric recorder. […]

Structure (SMILES)	smallest dose that presented some protective effect on mitochondrial swelling induced by statins (swelling induced by Simvastatin, Pravastatin and Lovastatin) [µg/mL]	protection against mitochondria swelling induced by Simvastatin (MFR 0.5 mg/ml, Piracar 0.25/0.65 μg/ml, CoQ 5 μg/ml, FIG. 5)
C[N+](C)(C)C[C@H](O)CC(=O)[O-] [L-carnitine]	0.5	
COC1=C(OC)C(=O)C(C/C=C(\C)CC/C=C(\C)CC/C=C(\C)CC/C=C(\C)CC/C=C(\C)CC/C=C(\C)CC/C=C(\C)CC/C=C(\C)CC/C=C(\C)CCC=C(C)C)=C(C)C1=O [coenzyme Q10, 2,3,dimethoxyl-5-methyl-6-decaprenil-1,4-benzoquinone]		effect of the addition of coenzyme Q10 in the protection against mitochondria swelling
